Molecular target: T1, EBP (Homo sapiens, UniProt Q15125)
T1 construct: endogenous in cells; host or cells: Patients with recurrent malignant glioma (WHO grade III or IV), in vivo; sterol ratio assessed in serum
Assay: Phase 1 clinical trial: pharmacodynamics, Lathosterol/Zymostenol (L/Z) ratio
Type: in vivo
Conditions: for decrease of mean L/Z ratio: Cycle 1 Day 2 (C1D2), as of April 2024
Excerpt: As of September 2023, pharmacodynamic assessments had clearly shown that Compound 1 inhibited the target, at least in serum. […] (Figure 5)

T1 sequence (Q15125 whole entry): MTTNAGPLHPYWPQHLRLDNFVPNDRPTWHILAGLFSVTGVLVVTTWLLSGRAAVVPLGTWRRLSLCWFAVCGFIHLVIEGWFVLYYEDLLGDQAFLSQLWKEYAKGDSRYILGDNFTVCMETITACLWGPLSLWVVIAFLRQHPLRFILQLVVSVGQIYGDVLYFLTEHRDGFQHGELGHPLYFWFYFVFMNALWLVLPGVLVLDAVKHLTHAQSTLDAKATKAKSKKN

Q: Which “reduction in the L/Z ratio versus lower dose levels” value (480 mg per day (240 mg BID)) does the source give for `CC1(C)Oc2cc(Cl)ccc2[C@@H]2OCC3(CCN(CCn4ccnc4)CC3)C[C@H]21` [Compound 1, (4'aR,10'bR)-8'-chloro-1-[2-(1H-imidazol-1-yl)ethyl]-5',5'-dimethyl-4'a,10'b-dihydro-2'H,4'H,5'H-spiro[piperidine-4,3'-pyrano[3,2-c][1]benzopyran] diphosphate] here?
A: did not show a greater reduction in the L/Z ratio than those at the 180-360 mg QD dose levels

Q: And the “decrease of mean L/Z ratio” value (20 mg QD)?
A: 70%

Q: What about the “decrease of mean L/Z ratio” value (180 mg and 240 mg QD) of the same molecule?
A: 95-97%

Q: What about the “decrease of mean L/Z ratio” value (360 mg QD) of the same molecule?
A: 97.5%

Q: And the “decrease of mean L/Z ratio” value (40-120 mg QD)?
A: 85-91%

Q: What about the “decrease of L/Z ratio” value (Cycle 1 Day 8 (C1D8), 20-360 mg QD, maintained in subsequent cycles) of the same molecule?
A: approximately 100%

Q: And the “blood L/Z ratio across dose groups” value (from the 180 mg QD to 360 mg QD dose groups)?
A: remained at a similar level

Q: What about the “decrease of the ratio of lathosterol and zymostenol (L/Z ratio)” value (serum, starting from 40 mg QD cohort, as of September 2023) of the same molecule?
A: over 80%
